Measured values published in a compilation of properties of binary mixtures (doi:10.1016/j.molliq.2017.12.015).

Assay: xn = mol fraction of the nth substance listed
Settings: 100 kPa

CCOCCO + CCCC[n+]1ccn(C)c1.O=S(=O)([N-]S(=O)(=O)C(F)(F)F)C(F)(F)F
speed of sound [m/s]
Settings | x2 = 0 | x2 = 0.1036 | x2 = 0.1905 | x2 = 0.2965 | x2 = 0.3882 | x2 = 0.489 | x2 = 0.5889 | x2 = 0.7018 | x2 = 0.7928 | x2 = 0.9071
298.15 K | 1302.8 | 1279.9 | – | – | 1240.5 | 1234.5 | 1231.4 | 1230.7 | – | 1228.3
303.15 K | 1285.1 | 1264.6 | 1246.6 | 1234.2 | – | 1223.9 | 1219.6 | 1219 | 1218.4 | 1217.3
308.15 K | 1267.3 | 1248.9 | 1232.1 | 1220.6 | 1214.5 | 1210.4 | 1207.6 | 1207.2 | 1206.9 | 1206.1
313.15 K | – | 1230.1 | 1217.7 | – | – | 1198 | 1197.7 | 1196.5 | 1196 | 1195
318.15 K | 1232 | 1217.4 | 1203.3 | – | – | 1187.7 | 1186.9 | 1185.9 | – | 1185
323.15 K | 1214.3 | 1201.5 | 1189 | – | 1176.2 | 1175.5 | 1175 | 1174.9 | 1174.3 | 1174

CCCC[n+]1ccn(C)c1.O=S(=O)([N-]S(=O)(=O)C(F)(F)F)C(F)(F)F + CCOCCO
x1 = 1
Settings | speed of sound [m/s]
298.15 K | 1227.8
303.15 K | 1216.7
308.15 K | 1205.8
313.15 K | 1194.9
318.15 K | 1184.2
323.15 K | 1173.6
